{
  "source": "patent US7071218B2",
  "about": "“N-substituted heterocycles for the treatment of hypercholesteremia, dyslipidemia and other metabolic disorders; cancer, and other diseases” (Incyte San Diego Incorporated, priority 2001, dated 2006)",
  "key": {"PPARγ": {"target": "T1, PPARγ (Homo sapiens, UniProt P37231)", "T1 construct": "expressed in transfected cells; host or cells: CV-1 (green monkey kidney) cells, transient calcium phosphate transfection", "T1 sequence (P37231 238-503 limits assumed)": "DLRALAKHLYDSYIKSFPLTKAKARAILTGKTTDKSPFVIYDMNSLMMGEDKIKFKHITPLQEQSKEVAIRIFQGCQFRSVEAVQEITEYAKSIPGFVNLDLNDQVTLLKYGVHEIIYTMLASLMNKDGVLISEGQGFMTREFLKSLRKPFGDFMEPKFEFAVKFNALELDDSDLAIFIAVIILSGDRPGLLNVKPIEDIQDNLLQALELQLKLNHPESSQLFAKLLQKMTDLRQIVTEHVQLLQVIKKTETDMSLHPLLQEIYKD", "assay": "In vitro transactivation assay in CV-1 cells, antagonism of BRL49653-induced Gal-PPARγ activation", "type": "cell-based", "conditions": "with 1 μM agonist BRL49653, dose-dependent", "excerpt": "In vitro screens such as the transactivation assay can be used to measure the ability of a compound to inhibit a nuclear receptor regulating lipid or carbohydrate uptake, synthesis or metabolism. In the assay described herein compounds can be identified that can inhibit activation of the following nuclear receptors: LXR, PPARα, PPARγ and FXR. This activity can be useful to treat lipid disorders such as hypercholesteremia and obesity.\nCell line: Kidney Green Monkey CV-1 cells.\nGrowing culturing medium: Dulbecco's modified Eagle's medium (DMEM) supplememnted with 10% fetal calf serum (FCS).\nProcedure: CV-1 cells were plated in 48 well-plate culture plates, at a density of 10,000 cells/well, 24 h prior to transfection. One to three hours before transfection, cells were fed with fresh medium. A modified calcium phosphate precipitation procedure was used for transient transfection (Pfahl, M. et al., 1990, Methods in Enzymology 189: 256).\nTypically, 40 ng reporter plasmid and 20 ng of each receptor expression vector were mixed, together with 10 ng of β-galactosidase control plasmid (pCH110, Pharmacia, Piscataway, N.J.) and Bluescript plasmid to obtain a total of 400 ng DNA per well. To this mixture 1 μl of 2.5M CaCl2 and 10 μl of BBS buffer, pH 6.95, were added afterward. […]"}, "3T3-L1 cells": {"system": "3T3-L1 cells", "assay": "3T3-L1 adipocyte differentiation (lipid content), alone or with rosiglitazone (BRL49653)", "type": "cell-based, mouse", "conditions": "7 days of treatment", "excerpt": "The mouse preadipocyte cell line 3T3-L1 has been extensively used to study adipocyte differentiation. Upon stimulation with differentiating agents, preadipocytes typically undergo one cell cycle expansion and then they are growth arrested and dramatically change their shape to become more rounded cells, loaded with lipids, in a fashion closely reflecting adipogenesis in vivo. In this well-known process of differentiation, peroxisome proliferator activated receptor gamma (PPARγ) and retinoid X receptor (RXR) play a key role. PPARγ binds as an obligatory heterodimer with RXR to specific responsive sequences in the promoter region of target genes. In the particular case of PPARγ/RXR heterodimers, both receptors can be activated via their specific ligands. As a consequence of such activation, adipocyte-specific genes are turned on (C/EBP, aP2, LPL, adipsin, etc) and adipocyte differentiation results. Because lipid accumulation is the endpoint of adipocyte differentiation, the quantification of lipids which have accumulated in cells upon treatment with the compound(s) of interest, will indicate the ability of that compound to trigger adipocyte differentiation. More importantly, the potency of that compound can be estimated as well based on the total amount of lipids accumulated. The amount of lipid measured at the end of the assay for each tested compound is here compared to that of Compound 73 at 0.1 μM, which is considered 100% (see FIG. 11A).\nIn the particular case of measuring the potential antagonistic activity of some compounds, the putative antagonist is combined together with an agonist (such as the PPARγ agonist BRL49653). Thus, the amount of lipids accumulated in response to BRL49653 (considered as 100% in this case), is decreased by the compound with antagonistic activity (see FIG. 11B).\nMaterials and Methods: Mouse embryo fibroblast 3T3-L1 cell line, from American Type Culture Collection (ATCC), was used as a model of adipocyte differentiation.\nGrowing medium (GM): DME Dulbecco's modified Eagle's medium containing 4500 mg/L glucose; 4 mM L-glutamine; 10 U/ml Pen-G; 10 mcg/ml and 10% Calf Serum (CS).\nDifferentiation medium (DM): DME Dulbecco's modified Eagle's medium containing 4500 mg/L glucose; 4 mM L-glutamine; 10 U/ml Pen-G; 10 mcg/ml and 10% Fetal Calf Serum (FCS). Cells are always kept at 10% CO2.\nCells were seeded at 3,000 cells/well in 96 well-tissue culture plates in growing medium.\nTwo days after reaching confluence, cells were treated with the different compounds of interest in DM (Day 0). Drugs were replaced every 2–3 days in DM. Differentiation was assessed after 7 days of treatment, by measuring the lipid content in the cells, using the Triglyceride (INFINITY) reagent (Quantitative assay). • Controls: All cells, including control cells (vehicle), are treated with the same volume of dimethyl sulfoxide (DMSO) never exceeding 0.1% final solvent concentration. As a positive control for differentiation, cells were treated with 10 μg insulin per ml and 2.5 μM dexamethasone (Ins/Dex)."}},
  "data": [
    {"smiles": "CN(C)c1cc2c(cc1-c1ccc3cc(/C=C4\\SC(=S)N(CC(=O)O)C4=O)ccc3c1)C(C)(C)CCC2(C)C", "note": "[Compound 7, {5-[6-(3-Dimethylamino-5,5,8,8-tetramethyl-5,6,7,8-tetrahydro-naphthalen-2-yl)-naphthalen-2-ylmethylene]-4-oxo-2-thioxo-thiazolidin-3-yl}-acetic acid]", "values": [
      {"measurement": "inhibition at 10 µM", "setting": "PPARγ", "result": "80 to 90", "unit": "%"},
      {"measurement": "lipid accumulation / differentiation of 3T3-L1 cells by the compound alone", "setting": "3T3-L1 cells; 1e-10M to 1e-5M", "result": "lacked the ability to differentiate 3T3-L1 cells by themselves"},
      {"measurement": "inhibition of adipocyte differentiation / lipid accumulation induced by rosiglitazone (BRL49653)", "setting": "3T3-L1 cells; in combination with rosiglitazone", "result": "strongly inhibited"}
    ]}
  ]
}
